pIC50, pKd: −log10 of the molar value. Like-named read-outs stand apart in the source and are kept apart here.
Assays:
[1] = target: FAK enzyme (catalytic domain, amino acids 411-686) (Homo sapiens (Human), UniProt Q05397); assay: FAK biochemical Alpha Screen assay; conditions: 80 μM ATP
[2] = target: N-terminally GST-fused purified FAK enzyme (Homo sapiens (Human), UniProt Q05397); assay: FAK Biacore SPR assay; type: binding
Protocol: Binding parameters of compounds were determined using a Biacore™ S51 sensor. An anti-GST antibody was immobilized onto a CM5 chip by primary amine-coupling in accordance with the manufacturer's recommendations.
Concentration series' of the test compounds were injected over the spots at 25° C.
After the injection cycle of a compound the chip surface was regenerated with 10 mM glycine-HCl, pH2.2 before capturing the enzyme again.

MDA-231-LNA cells = assay: 2D cellular proliferation assay; type: cell-based; conditions: 72 h, 3 days incubation, resazurin
[3] = target: VEGFR3 cytoplasmic domain (Homo sapiens, UniProt P35916, DEL949-1002); assay: VEGFR3 biochemical assay (Alpha Screen); conditions: modified form (*): N-terminal Hexa-His-fusion protein, amino acids 818-1177 lacking 949-1002
[4] = target: VEGFR3 cytoplasmic domain (Homo sapiens, UniProt P35916); assay: VEGFR3 biochemical assay (Alpha Screen); conditions: N-terminal GST-fusion protein (amino acids 798-1298), 500 μM ATP
[5] = system: taxane-sensitive (SKOV3ip1 and HeyA8) and taxane-resistant (HeyA8-MDR) ovarian cancer cell lines; conditions: cited from earlier work
[6] = system: HeyA8, SKOV3ip1, and HeyA8-MDR models; conditions: cited from earlier work
FAK = FAK (Homo sapiens (Human), UniProt Q05397); conditions: in vitro; cited from earlier work
MDA-231-LNA tumours = assay: Combination study efficacy and tolerability with dasatinib, IMFP MDA-231-LNA tumours; type: in vivo; conditions: Compound 3 40 mg/kg p.o. BID, dasatinib 30 mg/kg p.o. BID; Balb/c SCID mice, MDA-231-LNA primary tumour
Protocol: Treatment commenced when tumours were palpable (day 9 post cell injection) and continued for the duration of the experiment. The formulations used were the same as those above, with the vehicle (I-IPMC-SV, 0.2 ml), being administered as a control.
As additional markers of potential hepatotoxicity, liver weight at harvest as well as alanine aminotransferase (ALT) and aspartate transaminase (AST) levels were determined in plasma 12 hours after the final dose of drug.

Chain of VEGFR3 cytoplasmic domain (Homo sapiens, UniProt P35916, DEL949-1002) (P35916 with tags, fused parts or gaps DEL949-1002 limits assumed): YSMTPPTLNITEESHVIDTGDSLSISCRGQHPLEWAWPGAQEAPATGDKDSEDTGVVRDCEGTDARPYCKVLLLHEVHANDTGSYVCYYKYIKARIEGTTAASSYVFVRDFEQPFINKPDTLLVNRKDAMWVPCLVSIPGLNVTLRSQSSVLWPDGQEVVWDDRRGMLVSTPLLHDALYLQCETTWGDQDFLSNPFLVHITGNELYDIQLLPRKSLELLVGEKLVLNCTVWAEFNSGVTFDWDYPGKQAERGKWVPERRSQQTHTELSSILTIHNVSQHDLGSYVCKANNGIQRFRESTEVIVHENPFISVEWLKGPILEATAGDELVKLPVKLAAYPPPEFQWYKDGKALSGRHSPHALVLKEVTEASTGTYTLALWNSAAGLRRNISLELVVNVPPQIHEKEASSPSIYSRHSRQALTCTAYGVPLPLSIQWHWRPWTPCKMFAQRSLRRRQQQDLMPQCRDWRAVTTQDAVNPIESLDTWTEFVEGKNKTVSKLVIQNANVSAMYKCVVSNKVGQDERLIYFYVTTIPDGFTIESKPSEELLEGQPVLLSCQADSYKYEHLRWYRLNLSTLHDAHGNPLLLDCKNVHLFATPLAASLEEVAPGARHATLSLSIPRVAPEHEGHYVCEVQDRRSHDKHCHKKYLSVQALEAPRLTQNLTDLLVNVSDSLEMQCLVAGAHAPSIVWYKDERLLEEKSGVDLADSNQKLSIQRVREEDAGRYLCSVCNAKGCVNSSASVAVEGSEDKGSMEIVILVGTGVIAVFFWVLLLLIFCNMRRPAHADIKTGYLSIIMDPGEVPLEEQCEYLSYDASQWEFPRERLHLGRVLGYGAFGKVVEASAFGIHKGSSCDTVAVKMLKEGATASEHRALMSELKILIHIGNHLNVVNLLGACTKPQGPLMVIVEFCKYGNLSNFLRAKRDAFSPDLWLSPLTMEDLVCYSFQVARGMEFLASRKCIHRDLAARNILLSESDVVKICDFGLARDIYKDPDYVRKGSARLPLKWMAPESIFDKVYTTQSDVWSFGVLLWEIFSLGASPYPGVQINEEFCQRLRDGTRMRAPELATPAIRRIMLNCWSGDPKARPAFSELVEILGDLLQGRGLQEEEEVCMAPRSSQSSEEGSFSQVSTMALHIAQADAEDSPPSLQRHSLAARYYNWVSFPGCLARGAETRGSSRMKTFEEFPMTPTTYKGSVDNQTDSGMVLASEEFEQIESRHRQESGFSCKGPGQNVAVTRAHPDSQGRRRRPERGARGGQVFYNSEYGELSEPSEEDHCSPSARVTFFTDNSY
Chain of FAK enzyme (catalytic domain, amino acids 411-686) (Q05397 411-686): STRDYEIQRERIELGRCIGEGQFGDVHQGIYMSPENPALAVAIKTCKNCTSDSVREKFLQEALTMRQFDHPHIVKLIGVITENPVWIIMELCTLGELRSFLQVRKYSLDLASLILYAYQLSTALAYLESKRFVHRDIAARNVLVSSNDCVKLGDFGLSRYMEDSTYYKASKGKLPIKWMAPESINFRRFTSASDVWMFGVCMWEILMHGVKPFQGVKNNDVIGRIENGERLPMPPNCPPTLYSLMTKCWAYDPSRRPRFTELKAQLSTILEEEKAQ
Chain of N-terminally GST-fused purified FAK enzyme (Q05397 whole entry, the tested form may be a part): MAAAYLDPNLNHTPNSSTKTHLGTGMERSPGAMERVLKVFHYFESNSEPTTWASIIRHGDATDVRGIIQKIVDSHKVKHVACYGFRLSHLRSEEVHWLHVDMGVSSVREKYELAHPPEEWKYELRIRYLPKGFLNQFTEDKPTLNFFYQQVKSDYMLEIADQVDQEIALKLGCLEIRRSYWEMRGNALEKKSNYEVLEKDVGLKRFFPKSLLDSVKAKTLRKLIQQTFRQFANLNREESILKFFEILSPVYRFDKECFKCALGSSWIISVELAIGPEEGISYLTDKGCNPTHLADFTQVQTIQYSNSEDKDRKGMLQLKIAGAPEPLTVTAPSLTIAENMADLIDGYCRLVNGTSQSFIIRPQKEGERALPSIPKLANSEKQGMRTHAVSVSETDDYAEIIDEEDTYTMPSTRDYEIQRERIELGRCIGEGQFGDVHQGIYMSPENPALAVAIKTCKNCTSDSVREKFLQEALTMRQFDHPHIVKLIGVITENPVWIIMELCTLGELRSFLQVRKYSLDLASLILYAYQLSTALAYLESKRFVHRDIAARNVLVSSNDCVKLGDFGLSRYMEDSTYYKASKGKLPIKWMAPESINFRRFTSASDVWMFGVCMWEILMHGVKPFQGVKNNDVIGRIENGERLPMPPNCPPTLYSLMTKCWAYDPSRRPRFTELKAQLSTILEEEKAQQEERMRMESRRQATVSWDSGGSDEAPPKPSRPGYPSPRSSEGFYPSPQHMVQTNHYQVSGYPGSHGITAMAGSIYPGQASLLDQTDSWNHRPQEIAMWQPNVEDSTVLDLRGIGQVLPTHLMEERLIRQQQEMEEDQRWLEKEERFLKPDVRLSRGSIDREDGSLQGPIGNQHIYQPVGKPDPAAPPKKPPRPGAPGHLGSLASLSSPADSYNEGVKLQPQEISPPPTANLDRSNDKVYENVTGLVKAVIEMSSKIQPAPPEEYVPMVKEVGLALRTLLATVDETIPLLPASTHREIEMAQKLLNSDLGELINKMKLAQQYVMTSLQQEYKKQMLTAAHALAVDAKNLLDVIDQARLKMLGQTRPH
Chain of VEGFR3 cytoplasmic domain (Homo sapiens, UniProt P35916) (P35916 25-1363 limits assumed): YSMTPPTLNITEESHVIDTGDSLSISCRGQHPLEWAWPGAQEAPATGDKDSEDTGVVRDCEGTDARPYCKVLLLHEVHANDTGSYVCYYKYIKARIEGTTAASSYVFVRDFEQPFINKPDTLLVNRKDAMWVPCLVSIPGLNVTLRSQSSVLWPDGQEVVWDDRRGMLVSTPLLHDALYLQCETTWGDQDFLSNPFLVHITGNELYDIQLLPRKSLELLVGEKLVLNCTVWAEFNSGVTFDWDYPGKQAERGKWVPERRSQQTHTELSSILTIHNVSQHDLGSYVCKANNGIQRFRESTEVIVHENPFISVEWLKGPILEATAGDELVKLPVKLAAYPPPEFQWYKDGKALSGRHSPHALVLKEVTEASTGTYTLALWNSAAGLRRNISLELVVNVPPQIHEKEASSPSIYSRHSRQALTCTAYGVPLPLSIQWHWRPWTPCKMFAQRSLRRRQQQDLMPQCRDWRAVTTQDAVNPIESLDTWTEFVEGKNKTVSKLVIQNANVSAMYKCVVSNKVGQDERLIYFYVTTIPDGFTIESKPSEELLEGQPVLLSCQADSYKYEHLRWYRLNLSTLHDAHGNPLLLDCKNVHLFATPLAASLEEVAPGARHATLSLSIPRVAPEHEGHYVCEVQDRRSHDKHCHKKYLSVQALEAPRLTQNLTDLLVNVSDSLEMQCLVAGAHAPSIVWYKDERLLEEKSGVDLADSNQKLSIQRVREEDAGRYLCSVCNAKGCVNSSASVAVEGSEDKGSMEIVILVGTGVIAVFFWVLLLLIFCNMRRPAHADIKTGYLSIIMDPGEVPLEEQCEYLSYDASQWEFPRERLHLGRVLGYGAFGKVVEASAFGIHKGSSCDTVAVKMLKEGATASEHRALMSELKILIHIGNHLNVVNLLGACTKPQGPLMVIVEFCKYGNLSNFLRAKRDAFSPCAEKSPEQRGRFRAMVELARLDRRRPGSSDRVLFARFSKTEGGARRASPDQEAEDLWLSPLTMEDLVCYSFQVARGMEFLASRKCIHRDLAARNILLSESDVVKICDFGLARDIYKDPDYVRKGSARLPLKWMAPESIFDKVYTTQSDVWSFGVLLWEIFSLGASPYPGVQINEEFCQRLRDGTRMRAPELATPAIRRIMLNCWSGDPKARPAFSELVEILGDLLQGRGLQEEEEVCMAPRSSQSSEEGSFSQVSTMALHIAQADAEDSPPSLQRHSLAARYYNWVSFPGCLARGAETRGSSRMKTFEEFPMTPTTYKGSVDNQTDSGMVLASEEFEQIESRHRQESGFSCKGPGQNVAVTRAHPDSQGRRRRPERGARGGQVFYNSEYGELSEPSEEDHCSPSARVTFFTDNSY
Chain of FAK (Q05397 whole entry): as the sequence (Q05397 whole entry, the tested form may be a part) above

Row | SMILES | pIC50 [1] | pKd ([2]; Biacore S51, 25° C.) | pIC50 (MDA-231-LNA cells) | pIC50 [3] | pIC50 [4] | further results
1 | CCN1CCC(c2ccc(Nc3ncc(C(F)(F)F)c(CCc4ccccc4CC(N)=O)n3)c(OC)c2)CC1 [Compound 4, 2-(2-(2-(2-((4-(1-Ethylpiperidin-4-yl)-2-methoxyphenyl)amino)-5-(trifluoromethyl)pyrimidin-4-yl)ethyl)phenyl) acetamide] | 8.44 | 8.82 | 5.72 |  |  | 
2 | COc1cc(C2CCNCC2)ccc1Nc1ncc(C(F)(F)F)c(CCc2ccccc2CC(N)=O)n1 [Compound 2, 2-(2-(2-(2-((2-Methoxy-4-(piperidin-4-yl)phenyl)amino)-5-(trifluoromethyl)pyrimidin-4-yl)ethyl)phenyl)acetamide] | 8.15 | 9.13 | 5.56 | 5.43 |  | 
3 | CN1CCC(c2ccc(Nc3ncc(C(F)(F)F)c(CCc4ccccc4CC(N)=O)n3)c(OC(F)(F)F)c2)CC1 [Compound 11, 2-(2-(2-(2-((4-(1-Methylpiperidin-4-yl)-2-(trifluoromethoxy)phenyl)amino)-5-(trifluoromethyl)pyrimidin-4-yl)ethyl)phenyl)acetamide] | 8.66 | 8.77 | 5.59 |  | 4.22 | 
4 | CCc1cc(C2CCN(C)CC2)ccc1Nc1ncc(C(F)(F)F)c(CCc2ccccc2CC(N)=O)n1 [Compound 9, 2-(2-(2-(2-((2-Ethyl-4-(1-methylpiperidin-4-yl)phenyl)amino)-5-(trifluoromethyl)pyrimidin-4-yl)ethyl)phenyl)acetamide] |  |  | 5.54 |  |  | 
5 | CCN1CCC(c2ccc(Nc3ncc(C(F)(F)F)c(CCc4cccc(C(N)=O)c4)n3)c(OC)c2)CC1 [Compound 7] | 8.03 |  | 5.31 | 4.88 |  | 
6 | NC(=O)Cc1ccccc1CCc1nc(Nc2ccc(C3CCNCC3)cc2OC(F)(F)F)ncc1C(F)(F)F [Compound 10, 2-(2-(2-(2-((4-(Piperidin-4-yl)-2-(trifluoromethoxy)phenyl)amino)-5-(trifluoromethyl)pyrimidin-4-yl)ethyl)phenyl)acetamide] | 8.57 | 9.10 | 5.77 |  | < 4.18 | 
7 | COc1cc(N2CCNCC2)ccc1Nc1ncc(C(F)(F)F)c(CCc2ccccc2CC(N)=O)n1 [Compound 1, 2-(2-(2-(2-((2-Methoxy-4-(piperazin-1-yl)phenyl)amino)-5-(trifluoromethyl)pyrimidin-4-yl)ethyl)phenyl)acetamide] | 8.72 | 9.54 | 5.84 | 6.56 |  | 
8 | COc1cc(C2CCNCC2)ccc1Nc1ncc(C(F)(F)F)c(CCc2cccc(C(N)=O)c2)n1 [Compound 5, 3-(2-(2-((2-Methoxy-4-(piperidin-4-yl)phenyl)amino)-5-(trifluoromethyl)pyrimidin-4-yl)ethyl)benzamide] | 8.14 |  | 5.51 | 5.24 |  | 
9 | CNC(=O)c1ccccc1Nc1nc(Nc2ccc(N3CCOCC3)cc2OC)ncc1Cl [TAE226] |  |  |  |  |  | cell growth ([5]; in vitro): inhibited cell growth in a time- and dose-dependent manner; enhancement of docetaxel-mediated growth inhibition ([5]; taxane-resistant cell lines): 20 fold; enhancement of docetaxel-mediated growth inhibition ([5]; taxane-sensitive cell lines): 10 fold; reduction of tumour burden compared with vehicle-treated controls [6]: 46-64%; phosphorylation of FAK at Y397 and Y861 sites (FAK): inhibited
10 | COc1cc(C2CCN(C)CC2)ccc1Nc1ncc(C(F)(F)F)c(CCc2ccccc2CC(N)=O)n1 [Compound 3, 2-(2-(2-(2-((2-Methoxy-4-(1-methylpiperidin-4-yl)phenyl)amino)-5-(trifluoromethyl)pyrimidin-4-yl)ethyl)phenyl)acetamide] | 8.66 |  | 5.18 |  | 6.27 | pKd ([2]; Biacore S51, measured using an extended washing step of 30 minutes): 9.68; TGI based on tumour weight (MDA-231-LNA tumours): 42%
11 | CCc1cc(C2CCNCC2)ccc1Nc1ncc(C(F)(F)F)c(CCc2ccccc2CC(N)=O)n1 [Compound 8, 2-(2-(2-(2-((2-Ethyl-4-(piperidin-4-yl)phenyl)amino)-5-(trifluoromethyl)pyrimidin-4-yl)ethyl)phenyl)acetamide] |  |  | 5.61 |  | 5.93 | 
12 | CN1CCC(c2ccc(Nc3ncc(C(F)(F)F)c(CCc4ccccc4CC(N)=O)n3)c(F)c2)CC1 [Compound 13, 2-(2-(2-(2-((2-Fluoro-4-(1-methylpiperidin-4-yl)phenyl)amino)-5-(trifluoromethyl)pyrimidin-4-yl)ethyl)phenyl)acetamide] | 8.25 |  | 5.56 |  | 6.69 | 
13 | COc1cc(C2CCN(C)CC2)ccc1Nc1ncc(C(F)(F)F)c(CCc2cccc(C(N)=O)c2)n1 [Compound 6, 3-(2-(2-((2-Methoxy-4-(1-methylpiperidin-4-yl)phenyl)amino)-5-(trifluoromethyl)pyrimidin-4-yl)ethyl)benzamide] | 8.68 | 8.54 | 5.65 |  | 4.98 | 

Source: patent US9120761B2, “Selective FAK inhibitors” (priority 2011, dated 2015)
